Here are results for 49 compounds from patent US10730863B2, “Bridged bicyclic compounds as farnesoid X receptor modulators” (BRISTOL-MYERS SQUIBB COMPANY, priority 2017, dated 2020).

For orientation: EC50 means the concentration giving half of the maximal effect.

This assay deals with FXR (Homo sapiens (Human), UniProt Q96RI1). Briefly: transient human FXR/Gal4-luciferase reporter assay. As to conditions: Gal4-hFXR LBD fusion in HEK293 reporter cells; relative to 8 μM GW-4064. The assay is classed as cell-based. Here is the method: The exemplified compounds of the present invention were tested in the transient human FXR/Gal4-luciferase reporter assay, and assay results were described in the EXAMPLES section hereinbefore.
Sequence of FXR (Q96RI1 262-486): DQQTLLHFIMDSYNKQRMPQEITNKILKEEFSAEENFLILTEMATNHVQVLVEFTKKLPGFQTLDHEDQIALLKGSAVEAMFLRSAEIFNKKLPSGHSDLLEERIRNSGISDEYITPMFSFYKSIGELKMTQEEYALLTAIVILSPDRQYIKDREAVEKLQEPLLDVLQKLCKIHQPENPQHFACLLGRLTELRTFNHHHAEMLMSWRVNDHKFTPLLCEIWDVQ
A Gal4-hFXR fusion construct reporter system was used as the primary assay to characterize compound activity. A construct including 5 copies of the Gal4 promoter response element upstream of a firefly luciferase reporter cDNA was stably expressed in HEK293 cells. This reporter cell line was maintained in Dulbecco's Modified Eagle's medium (DMEM; Gibco) supplemented with 1% penicillin-streptomycin (P/S) solution, 500 μg/ml Zeocin and 10% charcoal/dextran-treated fetal bovine serum (cs-FBS) at 37° C. in a humidified 5% CO2 atmosphere. Another plasmid was constructed in which the human cytomegalovirus promoter in the pcDNA3.1 vector directs the expression of the cDNA encoding a fusion protein comprised of the DNA binding domain from the Gal4 transcription factor fused to the ligand binding domain from human FXR.
The day prior to transfection, the reporter cells in culture are detached from the plate with trypsin and plated into a T75 flask at a sufficient density to achieve approximately 90% confluence the next morning. The transfection reagents are prepared by separately diluting 25 μg of the pcDNA3.1-Gal4-FXR plasmid into 1.87 mL of Opti-MEM (Thermo-Fisher), and 40 μL of Lipofectamine 2000 (Thermo-Fisher) into 1.87 mL of Opti-MEM, and then adding the diluted DNA solution into the diluted Lipofectamine 2000 solution and incubating at room temperature for 15-20 minutes. The mixture is further diluted with 10 mL of a solution comprised of DMEM, 10% cs-FBS, and 1% P/S immediately prior to transferring to the cells. The maintenance culture media is aspirated from the cells and the final transfection mixture is added before the cells are incubated overnight at 37° C. in a humidified 5% CO2 atmosphere. This protocol can be scaled up, and the transiently transfected cells can be cryopreserved in an assay-ready format.
For compound testing, 100 nL of the compounds (serial dilutions in DMSO) are dispensed with an Echo acoustic dispenser (Labcyte) into the wells of a Corning/Costar clear bottom 384-well white plate. The transfected cells are harvested, counted, and diluted such that 10-25,000 cells in 25 μL are plated into each well of the 384-well compound assay plate. The compound-treated cells are incubated overnight at 37° C. in a humidified 5% CO2 atmosphere. The next morning 25 μL of Steady-Glo (Promega) are added to each well of the plate, the mixture is incubated for 15 min. with shaking, and luminescence is measured on an Envision (Perkin Elmer) plate reader. Background counts from cells treated with DMSO alone are subtracted from all raw counts, and the corrected values are converted to a percentage of the control response attained with 8 μM GW-4064.
A general note: A reporter such as luciferase makes a cellular process visible.
Regarding `O=C(O)COc1cc(C#CC23CCC(OCc4c(-c5c(Cl)cncc5Cl)noc4C4CC4)(CC2)CC3)ccn1` [Example 561], the EC50 is 779 nM.
For `O=C(O)c1cc(C(F)(F)F)cc(COCC23CCC(OCc4c(-c5c(Cl)cncc5Cl)noc4C4CC4)(CC2)CC3)n1` [Example 527] the value was 86 nM; for `O=C(O)c1cc(/C=C/C23CCC(OCc4c(-c5c(Cl)cncc5Cl)noc4C4CC4)(CC2)CC3)ccn1` [Example 626], 879 nM.
With `O=C(O)Cc1ccc(/C=C/C23CCC(OCc4c(-c5c(Cl)cncc5Cl)noc4C4CC4)(CC2)CC3)c(C(F)(F)F)c1` [Example 621] the figure was 43 nM; with `O=C(O)Cc1ccc(C#CC23CCC(OCc4c(-c5c(Cl)cncc5Cl)noc4C4CC4)(CC2)CC3)c(C(F)(F)F)c1` [Example 565], 115 nM; with `O=C(O)c1cnc(N2CCC2)c(C#CC23CCC(OCc4c(-c5c(Cl)cncc5Cl)noc4C4CC4)(CC2)CC3)c1` [Example 562], 21 nM.
`COc1ncc(-c2noc(C34CCC(OCc5c(-c6c(Cl)cncc6Cl)noc5C5CC5)(CC3)CC4)n2)cc1C(=O)O` [Example 585] had an EC50 of 114 nM.
Regarding `Cc1c(OCC23CCC(OCc4c(-c5c(Cl)cncc5Cl)noc4C4CC4)(CC2)CC3)nn(C(C)C)c1C(=O)O` [Example 531], the EC50 is 138 nM.
For `CCn1nc(C(=O)O)cc1OCC12CCC(OCc3c(-c4c(Cl)cncc4Cl)noc3C3CC3)(CC1)CC2` [Example 537] the value was 79 nM.
`COCCCOc1nc(C(=O)O)cc2ccc(/C=C/C34CCC(OCc5c(-c6c(Cl)cncc6Cl)noc5C5CC5)(CC3)CC4)cc12` [Example 601] came in with an EC50 of 18 nM.
Compound `O=C(O)COCc1ccc(/C=C/C23CCC(OCc4c(-c5c(Cl)cncc5Cl)noc4C4CC4)(CC2)CC3)cc1` [Example 622] came in with an EC50 of 176 nM.
For `O=C(O)c1cccc(COCC23CCC(OCc4c(-c5c(Cl)cncc5Cl)noc4C4CC4)(CC2)CC3)c1` [Example 525] the value was 167 nM.
For `O=C(O)c1ccn2cc(OCC34CCC(OCc5c(-c6c(Cl)cncc6Cl)noc5C5CC5)(CC3)CC4)nc2c1` [Example 538] the value was 90 nM.
With `CC(C)Oc1cc(C(=O)O)nc2ccc(/C=C/C34CCC(OCc5c(-c6c(Cl)cncc6Cl)noc5C5CC5)(CC3)CC4)cc12` [Example 591] the figure was 16 nM.
`O=C(O)c1cncc(/C=C/C23CCC(OCc4c(-c5c(Cl)cncc5Cl)noc4C4CC4)(CC2)CC3)c1` [Example 627] came in with an EC50 of 1150 nM.
With `O=C(O)c1cc2ccc(C#CC34CCC(OCc5c(-c6c(Cl)cncc6Cl)noc5C5CC5)(CC3)CC4)cc2c(N2CCOCC2)n1` [Example 548] the figure was 13 nM; with `O=C(O)c1cc2ccc(C#CC34CCC(OCc5c(-c6c(Cl)cncc6Cl)noc5C5CC5)(CC3)CC4)cc2c(N2CC(F)C2)n1` [Example 553], 12 nM.
The compound `O=C(O)c1cc2cc(C#CC34CCC(OCc5c(-c6c(Cl)cncc6Cl)noc5C5CC5)(CC3)CC4)ccc2c(N2CCOCC2)n1` [Example 555] came in with an EC50 of 87 nM.
For `CCc1nc(C(=O)O)cc2ccc(OCC34CCC(OCc5c(-c6c(Cl)cncc6Cl)noc5C5CC5)(CC3)CC4)cc12` [Example 529] the value was 9 nM; for `O=C(O)c1ccc(/C=C/C23CCC(OCc4c(-c5c(Cl)cncc5Cl)noc4C4CC4)(CC2)CC3)cc1` [Example 625], 350 nM.
For `CCOc1nc(C(=O)O)cc2ccc(/C=C/C34CCC(OCc5c(-c6c(Cl)cncc6Cl)noc5C5CC5)(CC3)CC4)cc12` [Example 604] the value was 44.1 nM; for `COc1nc(C(=O)O)nc2ccc(/C=C/C34CCC(OCc5c(-c6c(Cl)cncc6Cl)noc5C5CC5)(CC3)CC4)cc12` [Example 590], 944 nM.
For `CCn1nc(C(=O)O)c(F)c1OCC12CCC(OCc3c(-c4c(Cl)cncc4Cl)noc3C3CC3)(CC1)CC2` [Example 540], the half-maximal effective concentration (EC50) came to 345 nM.
For `O=C(O)Cc1ccc(/C=C/C23CCC(OCc4c(-c5c(Cl)cncc5Cl)noc4C4CC4)(CC2)CC3)cn1` [Example 596] the value was 1350 nM.
`O=C(O)c1csc(-c2ccc(/C=C/C34CCC(OCc5c(-c6c(Cl)cncc6Cl)noc5C5CC5)(CC3)CC4)cc2)n1` [Example 628] had an EC50 of 72 nM.
With `COCCCOc1nc(C(=O)O)cc2cc(C#CC34CCC(OCc5c(-c6c(Cl)cncc6Cl)noc5C5CC5)(CC3)CC4)ccc12` [Example 549] the figure was 126 nM; with `O=C(O)c1cn2c(n1)CN(CC13CCC(OCc4c(-c5c(Cl)cccc5Cl)noc4C4CC4)(CC1)CC3)CC2` [Example 578], 903 nM; with `Cc1nc(NCC23CCC(OCc4c(-c5c(Cl)cccc5Cl)noc4C4CC4)(CC2)CC3)sc1CC(=O)O` [Example 577], 860 nM.
In turn, `O=C(O)CCc1ccc(/C=C/C23CCC(OCc4c(-c5c(Cl)cncc5Cl)noc4C4CC4)(CC2)CC3)cc1F` [Example 607] registered a concentration for a half-maximal effect (EC50) of 269 nM.
With `CN(C)C1CN(c2nc(C(=O)O)cc3ccc(C#CC45CCC(OCc6c(-c7c(Cl)cncc7Cl)noc6C6CC6)(CC4)CC5)cc23)C1` [Example 572] the figure was 61 nM; with `O=C(O)Cc1cccc(/C=C/C23CCC(OCc4c(-c5c(Cl)cncc5Cl)noc4C4CC4)(CC2)CC3)c1` [Example 600], 2040 nM.
For `O=C(O)c1cc(C(F)(F)F)cn2c(C#CC34CCC(OCc5c(-c6c(Cl)cncc6Cl)noc5C5CC5)(CC3)CC4)cnc12` [Example 545] the value was 5 nM; for `O=C(O)COCc1ccc(C#CC23CCC(OCc4c(-c5c(Cl)cncc5Cl)noc4C4CC4)(CC2)CC3)nc1` [Example 569], 1360 nM; for `CCOc1nc(C(=O)O)cc2ccc(OCC34CCC(OCc5c(-c6c(Cl)cncc6Cl)noc5C5CC5)(CC3)CC4)cc12` [Example 575], 18 nM.
With `O=C(O)COc1ccc(C#CC23CCC(OCc4c(-c5c(Cl)cncc5Cl)noc4C4CC4)(CC2)CC3)c(F)c1` [Example 554] the figure was 3160 nM; with `O=C(O)c1cc2ccc(/C=C/C34CCC(OCc5c(-c6c(Cl)cncc6Cl)noc5C5CC5)(CC3)CC4)cc2c(N2CCOCC2)n1` [Example 603], 18 nM.
Compound `O=C(O)c1cc2ccc(/C=C/C34CCC(OCc5c(-c6c(Cl)cncc6Cl)noc5C5CC5)(CC3)CC4)cc2c(N2CC(CO)C2)n1` [Example 612] came in with an EC50 of 108 nM.
With `O=C(O)Cc1ccc(C#CC23CCC(OCc4c(-c5c(Cl)cncc5Cl)noc4C4CC4)(CC2)CC3)cc1F` [Example 567] the figure was 121 nM; with `O=C(O)Cc1ccc(/C=C/C23CCC(OCc4c(-c5c(Cl)cncc5Cl)noc4C4CC4)(CC2)CC3)c(F)c1` [Example 602], 81 nM; with `O=C(O)c1cc2ccc(C#CC34CCC(OCc5c(-c6c(Cl)cncc6Cl)noc5C5CC5)(CC3)CC4)cc2c(NC2CC2)n1` [Example 551], 406 nM.
As to `O=C(O)COCc1ccc(C#CC23CCC(OCc4c(-c5c(Cl)cncc5Cl)noc4C4CC4)(CC2)CC3)cn1` [Example 571], the response was half-maximal at 272 nM (EC50).
As for `O=C(O)c1c(F)c(OCC23CCC(OCc4c(-c5c(Cl)cncc5Cl)noc4C4CC4)(CC2)CC3)nn1CC1CC1` [Example 535], a half-maximal response (EC50) required 50 nM.
For `CCOc1cc(C(=O)O)nc2ccc(/C=C/C34CCC(OCc5c(-c6c(Cl)cncc6Cl)noc5C5CC5)(CC3)CC4)cc12` [Example 598] the value was 11 nM; for `O=C(O)c1cc2ccc(Cl)cc2c(C#CC23CCC(OCc4c(-c5c(Cl)cncc5Cl)noc4C4CC4)(CC2)CC3)n1` [Example 547], 251 nM; for `O=C(O)c1cc2ccc(C#CC34CCC(OCc5c(-c6c(Cl)cncc6Cl)noc5C5CC5)(CC3)CC4)cc2c(Nc2ccccc2)n1` [Example 550], 186 nM.
Consider `Cn1nc(NCC23CCC(OCc4c(-c5c(Cl)cccc5Cl)noc4C4CC4)(CC2)CC3)cc1C(=O)O` [Example 581], for which the EC50 was 265 nM.
For `O=C(O)COc1cc(/C=C/C23CCC(OCc4c(-c5c(Cl)cncc5Cl)noc4C4CC4)(CC2)CC3)ccn1` [Example 617] the value was 1460 nM; for `CN1CCN(c2ncc(C(=O)O)cc2C#CC23CCC(OCc4c(-c5c(Cl)cncc5Cl)noc4C4CC4)(CC2)CC3)CC1` [Example 568], 524 nM.
For `O=C(O)c1cc(OC2CCOC2)c2nc(C34CCC(OCc5c(-c6c(Cl)cncc6Cl)noc5C5CC5)(CC3)CC4)ccc2c1` (stereo not shown) [Example 560] the value was 286 nM.
